Measurements from ChEMBL document CHEMBL1148543, “Discovery of A-770041, a src-family selective orally active lck inhibitor that prevents organ allograft rejection” (Bioorg Med Chem Lett, 2006).

Key:
[1] = target: T1, Tyrosine-protein kinase Lck (Homo sapiens, UniProt P06239); test: Inhibitory activity against anti-CD3 mAb-induced IL2 production in human whole blood; format: functional, tissue-based
[2] = target: T1, Tyrosine-protein kinase Lck; test: Inhibitory activity against lck
[3] = target: Tyrosine-protein kinase Fyn (Homo sapiens, UniProt P06241); test: Inhibitory activity against fyn
Chain of Tyrosine-protein kinase Fyn (P06241 whole entry): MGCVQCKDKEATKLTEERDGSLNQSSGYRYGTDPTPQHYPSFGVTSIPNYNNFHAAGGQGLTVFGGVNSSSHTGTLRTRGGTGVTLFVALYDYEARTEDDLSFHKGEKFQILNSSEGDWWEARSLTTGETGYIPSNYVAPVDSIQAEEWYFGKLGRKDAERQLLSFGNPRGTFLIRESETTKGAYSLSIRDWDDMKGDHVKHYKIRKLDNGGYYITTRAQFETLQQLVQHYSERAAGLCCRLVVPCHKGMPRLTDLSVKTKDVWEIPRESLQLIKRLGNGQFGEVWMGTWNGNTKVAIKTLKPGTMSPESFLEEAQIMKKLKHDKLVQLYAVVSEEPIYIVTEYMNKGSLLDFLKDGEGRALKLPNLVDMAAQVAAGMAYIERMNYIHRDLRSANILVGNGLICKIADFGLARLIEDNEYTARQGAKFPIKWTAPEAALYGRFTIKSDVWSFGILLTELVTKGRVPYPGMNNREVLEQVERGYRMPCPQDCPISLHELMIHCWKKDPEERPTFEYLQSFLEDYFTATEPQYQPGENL

[4] = Plasma clearance in mouse; format: ADME, organism-based
[5] = Cmax in mouse; format: ADME, organism-based; conditions: in vivo
[6] = Half life in mouse; format: ADME, organism-based; conditions: in vivo
[7] = target: Mitogen-activated protein kinase kinase kinase 8 (Homo sapiens, UniProt P41279); test: Inhibitory activity against COT
Chain of Mitogen-activated protein kinase kinase kinase 8 (P41279 whole entry): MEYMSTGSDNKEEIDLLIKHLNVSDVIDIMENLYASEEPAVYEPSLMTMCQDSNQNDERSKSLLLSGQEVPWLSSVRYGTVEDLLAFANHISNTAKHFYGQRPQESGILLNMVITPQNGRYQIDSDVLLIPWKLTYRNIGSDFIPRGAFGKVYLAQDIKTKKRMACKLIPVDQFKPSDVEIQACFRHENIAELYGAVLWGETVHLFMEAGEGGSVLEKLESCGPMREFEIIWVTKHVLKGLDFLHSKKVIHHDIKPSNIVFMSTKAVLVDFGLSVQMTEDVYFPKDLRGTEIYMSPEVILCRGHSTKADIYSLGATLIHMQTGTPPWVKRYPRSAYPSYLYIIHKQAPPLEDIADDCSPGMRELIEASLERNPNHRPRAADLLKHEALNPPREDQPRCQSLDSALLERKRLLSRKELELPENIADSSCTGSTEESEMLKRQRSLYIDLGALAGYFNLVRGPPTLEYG

[8] = Oral bioavailability in mouse; format: ADME, organism-based; conditions: in vivo
[9] = Tmax in rat; format: ADME, organism-based; conditions: in vivo
[10] = target: Tyrosine-protein kinase Lyn (Homo sapiens, UniProt P07948); test: Inhibitory activity against lyn
Chain of Tyrosine-protein kinase Lyn (P07948 whole entry): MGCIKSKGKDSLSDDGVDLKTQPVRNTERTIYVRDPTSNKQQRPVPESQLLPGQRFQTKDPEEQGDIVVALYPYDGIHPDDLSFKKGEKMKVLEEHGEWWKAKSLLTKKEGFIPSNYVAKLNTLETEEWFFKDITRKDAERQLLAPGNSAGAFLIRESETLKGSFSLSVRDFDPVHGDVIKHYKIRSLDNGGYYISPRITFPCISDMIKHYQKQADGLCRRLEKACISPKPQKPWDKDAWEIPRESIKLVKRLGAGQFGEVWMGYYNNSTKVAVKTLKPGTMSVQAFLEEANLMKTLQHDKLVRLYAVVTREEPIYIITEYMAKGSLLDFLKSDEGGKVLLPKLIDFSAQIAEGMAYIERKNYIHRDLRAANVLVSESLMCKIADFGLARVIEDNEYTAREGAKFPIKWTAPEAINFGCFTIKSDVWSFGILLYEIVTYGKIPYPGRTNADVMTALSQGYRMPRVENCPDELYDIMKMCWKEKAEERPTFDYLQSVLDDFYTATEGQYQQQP

[11] = target: T2, Tyrosine-protein kinase ZAP-70 (Homo sapiens, UniProt P43403); test: Inhibitory activity against ZAP70
T2 sequence (P43403 whole entry): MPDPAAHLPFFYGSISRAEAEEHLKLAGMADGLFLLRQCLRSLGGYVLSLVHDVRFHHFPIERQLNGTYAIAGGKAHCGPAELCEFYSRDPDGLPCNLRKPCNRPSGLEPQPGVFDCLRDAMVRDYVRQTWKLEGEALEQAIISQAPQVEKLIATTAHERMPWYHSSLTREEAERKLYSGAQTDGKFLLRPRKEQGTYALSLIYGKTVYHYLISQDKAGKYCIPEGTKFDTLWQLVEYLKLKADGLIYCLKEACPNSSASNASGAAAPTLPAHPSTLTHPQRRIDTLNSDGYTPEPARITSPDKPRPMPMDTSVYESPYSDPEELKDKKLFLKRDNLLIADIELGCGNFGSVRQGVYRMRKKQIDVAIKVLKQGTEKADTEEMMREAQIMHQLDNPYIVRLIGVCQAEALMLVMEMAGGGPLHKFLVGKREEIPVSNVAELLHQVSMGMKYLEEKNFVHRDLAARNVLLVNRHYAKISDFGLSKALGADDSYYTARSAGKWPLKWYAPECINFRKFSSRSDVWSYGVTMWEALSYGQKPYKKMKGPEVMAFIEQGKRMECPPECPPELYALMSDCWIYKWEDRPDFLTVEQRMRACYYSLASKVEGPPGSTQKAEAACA

[12] = target: Tyrosine-protein kinase Fgr (Homo sapiens, UniProt P09769); test: Inhibitory activity against fgr
[13] = tested on: Rattus norvegicus; test: Plasma concentration in rat at 10 mg/kg/day; format: ADME, organism-based; conditions: in vivo
[14] = Cmax in rat; format: ADME, organism-based; conditions: in vivo
[15] = Half life in rat; format: ADME, organism-based; conditions: in vivo
[16] = target: Tyrosine-protein kinase SYK (Homo sapiens, UniProt P43405); test: Inhibitory activity against Syk
[17] = Volume of distribution in mouse; format: ADME, organism-based; conditions: in vivo, read-out: Vdss
[18] = tested on: Rattus norvegicus; test: Plasma concentration in rat at 5 mg/kg/day; format: ADME, organism-based; conditions: in vivo
[19] = target: Angiopoietin-1 receptor (Homo sapiens, UniProt Q02763); test: Inhibitory activity against tie2
Chain of Angiopoietin-1 receptor (Q02763 whole entry): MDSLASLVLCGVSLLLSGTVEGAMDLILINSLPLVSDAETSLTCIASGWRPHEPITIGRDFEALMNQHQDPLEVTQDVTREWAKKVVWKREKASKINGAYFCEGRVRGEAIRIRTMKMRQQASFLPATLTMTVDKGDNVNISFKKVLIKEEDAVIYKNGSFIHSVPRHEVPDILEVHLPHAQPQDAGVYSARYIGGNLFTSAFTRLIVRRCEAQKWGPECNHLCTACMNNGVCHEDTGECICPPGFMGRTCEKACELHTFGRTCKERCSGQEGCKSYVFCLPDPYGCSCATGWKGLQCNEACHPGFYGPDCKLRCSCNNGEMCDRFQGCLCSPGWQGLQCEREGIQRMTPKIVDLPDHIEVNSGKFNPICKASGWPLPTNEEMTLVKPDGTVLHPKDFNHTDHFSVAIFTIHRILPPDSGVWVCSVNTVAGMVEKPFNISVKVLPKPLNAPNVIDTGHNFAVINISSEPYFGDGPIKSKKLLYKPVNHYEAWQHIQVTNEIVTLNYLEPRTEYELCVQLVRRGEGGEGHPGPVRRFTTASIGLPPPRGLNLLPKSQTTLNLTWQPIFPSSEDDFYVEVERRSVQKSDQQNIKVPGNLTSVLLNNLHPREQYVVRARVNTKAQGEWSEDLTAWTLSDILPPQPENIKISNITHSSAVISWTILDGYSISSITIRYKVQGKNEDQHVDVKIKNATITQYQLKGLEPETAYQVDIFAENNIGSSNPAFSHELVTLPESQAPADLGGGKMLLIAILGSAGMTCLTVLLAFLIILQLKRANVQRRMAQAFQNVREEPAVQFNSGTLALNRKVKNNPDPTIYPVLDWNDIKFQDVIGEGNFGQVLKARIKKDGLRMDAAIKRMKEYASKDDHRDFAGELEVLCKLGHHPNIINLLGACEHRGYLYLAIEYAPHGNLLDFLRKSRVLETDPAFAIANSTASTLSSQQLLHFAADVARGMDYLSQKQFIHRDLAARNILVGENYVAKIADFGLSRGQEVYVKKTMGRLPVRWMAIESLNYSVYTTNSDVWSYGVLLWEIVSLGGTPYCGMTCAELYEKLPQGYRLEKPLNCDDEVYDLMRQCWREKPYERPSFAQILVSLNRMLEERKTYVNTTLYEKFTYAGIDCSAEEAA

[20] = Volume of distribution in rat; format: ADME, organism-based; conditions: in vivo, read-out: Vdss
[21] = Plasma clearance in rat; format: ADME, organism-based
[22] = organism: Rattus norvegicus; test: Plasma concentration in rat at […]; format: ADME, organism-based; conditions: in vivo
[23] = Oral bioavailability in rat; format: ADME, organism-based; conditions: in vivo
[24] = Tmax in mouse; format: ADME, organism-based; conditions: in vivo
[25] = target: Proto-oncogene tyrosine-protein kinase LCK (Mus musculus, UniProt P06240); test: Inhibition of TCR stimulated IL2 production in mice administered orally; format: functional
Chain of Proto-oncogene tyrosine-protein kinase LCK (P06240 whole entry): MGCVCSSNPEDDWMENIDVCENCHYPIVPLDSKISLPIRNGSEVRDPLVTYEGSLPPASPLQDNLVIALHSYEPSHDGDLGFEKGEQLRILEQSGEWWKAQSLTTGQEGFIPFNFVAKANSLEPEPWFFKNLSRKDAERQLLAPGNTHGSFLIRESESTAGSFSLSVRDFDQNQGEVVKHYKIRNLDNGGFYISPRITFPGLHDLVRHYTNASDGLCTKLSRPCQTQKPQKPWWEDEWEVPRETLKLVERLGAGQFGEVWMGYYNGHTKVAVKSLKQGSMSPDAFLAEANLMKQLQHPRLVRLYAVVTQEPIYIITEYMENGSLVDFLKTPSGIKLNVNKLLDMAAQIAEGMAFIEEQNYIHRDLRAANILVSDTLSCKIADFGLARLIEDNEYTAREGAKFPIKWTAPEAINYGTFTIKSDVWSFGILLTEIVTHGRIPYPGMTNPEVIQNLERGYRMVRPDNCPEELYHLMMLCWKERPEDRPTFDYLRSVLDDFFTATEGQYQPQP

[26] = target: Proto-oncogene tyrosine-protein kinase LCK (Mus musculus) (UniProt P06240)
Chain of Proto-oncogene tyrosine-protein kinase LCK (Mus musculus) (P06240 2-509 limits assumed): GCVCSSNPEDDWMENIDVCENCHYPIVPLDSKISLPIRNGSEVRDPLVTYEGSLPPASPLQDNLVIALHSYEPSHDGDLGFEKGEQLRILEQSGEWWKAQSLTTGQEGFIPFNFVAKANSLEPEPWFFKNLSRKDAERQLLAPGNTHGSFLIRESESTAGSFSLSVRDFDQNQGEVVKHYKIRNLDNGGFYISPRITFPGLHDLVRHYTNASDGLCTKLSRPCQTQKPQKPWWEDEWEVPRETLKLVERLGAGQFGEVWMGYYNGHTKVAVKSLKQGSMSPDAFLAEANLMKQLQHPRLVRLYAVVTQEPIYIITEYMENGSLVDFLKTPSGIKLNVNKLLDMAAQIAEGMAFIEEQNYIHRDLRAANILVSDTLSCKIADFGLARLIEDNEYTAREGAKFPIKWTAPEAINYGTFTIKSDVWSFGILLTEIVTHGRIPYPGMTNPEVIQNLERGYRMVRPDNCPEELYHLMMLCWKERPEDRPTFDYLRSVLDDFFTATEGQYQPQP

[27] = target: Proto-oncogene tyrosine-protein kinase Src (Homo sapiens, UniProt P12931); test: Inhibitory activity against src
Chain of Proto-oncogene tyrosine-protein kinase Src (P12931 2-536 limits assumed): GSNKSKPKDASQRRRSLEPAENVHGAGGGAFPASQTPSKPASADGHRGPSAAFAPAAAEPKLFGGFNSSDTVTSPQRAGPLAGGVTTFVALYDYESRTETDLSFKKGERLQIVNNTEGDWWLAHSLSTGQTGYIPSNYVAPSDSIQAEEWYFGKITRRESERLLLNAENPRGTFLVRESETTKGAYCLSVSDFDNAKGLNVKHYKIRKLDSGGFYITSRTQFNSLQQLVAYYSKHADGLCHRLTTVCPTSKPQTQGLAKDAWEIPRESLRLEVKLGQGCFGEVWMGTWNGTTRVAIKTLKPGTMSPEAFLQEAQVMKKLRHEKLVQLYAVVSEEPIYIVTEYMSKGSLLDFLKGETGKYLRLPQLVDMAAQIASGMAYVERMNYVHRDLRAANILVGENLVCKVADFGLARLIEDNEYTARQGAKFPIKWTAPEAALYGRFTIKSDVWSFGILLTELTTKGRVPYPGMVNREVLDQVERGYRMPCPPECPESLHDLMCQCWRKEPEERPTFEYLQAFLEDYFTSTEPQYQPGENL

T1 sequence (P06239 whole entry): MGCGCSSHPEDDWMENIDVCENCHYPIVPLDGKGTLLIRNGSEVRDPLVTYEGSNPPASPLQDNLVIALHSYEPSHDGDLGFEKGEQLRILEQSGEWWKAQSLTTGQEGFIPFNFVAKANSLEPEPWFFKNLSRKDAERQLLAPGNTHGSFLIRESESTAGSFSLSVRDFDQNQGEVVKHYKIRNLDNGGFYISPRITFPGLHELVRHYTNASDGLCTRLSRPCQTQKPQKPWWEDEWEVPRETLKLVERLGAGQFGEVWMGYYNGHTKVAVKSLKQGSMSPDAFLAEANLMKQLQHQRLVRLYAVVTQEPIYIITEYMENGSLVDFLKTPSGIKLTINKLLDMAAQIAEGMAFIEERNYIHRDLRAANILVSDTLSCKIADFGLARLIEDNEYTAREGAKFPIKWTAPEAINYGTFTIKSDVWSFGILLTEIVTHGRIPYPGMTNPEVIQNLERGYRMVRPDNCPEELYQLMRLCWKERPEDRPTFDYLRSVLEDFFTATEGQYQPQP

COc1cc(-c2nn(C3CCN(Cc4ccccc4)CC3)c3ncnc(N)c23)ccc1NC(=O)c1ccc(C(F)(F)F)cc1F
IC50 [1]: 0.54 µM
IC50 [2]: 0.341 µM
IC50 [3]: > 50 µM

COc1cc(-c2nn(C3CCN(C4CCOCC4)CC3)c3ncnc(N)c23)ccc1NC(=O)c1ccc(OC(F)(F)F)cc1
IC50 [2]: 2.35 µM
IC50 [3]: > 50 µM

COc1cc(-c2nn(C3CCN(C4CCOCC4)CC3)c3ncnc(N)c23)ccc1NC(=O)c1cccc(O)c1
IC50 [2]: 23.2 µM
IC50 [3]: > 50 µM

COc1cc(-c2nn(C3CCN(C4CCOCC4)CC3)c3ncnc(N)c23)ccc1NC(=O)c1cc2cc(C(N)=O)ccc2n1C
IC50 [2]: > 50 µM
IC50 [3]: > 50 µM

COc1cc(-c2nn([C@H]3CC[C@H](N4CCN(C(C)=O)CC4)CC3)c3ncnc(N)c23)ccc1NC(=O)c1cc2ccccc2n1C
clearance [4]: 1.5 L/h/kg
Cmax [5]: 0.387 µg/mL
half-life [6]: 4.7 h
IC50 [7]: > 25 µM
bioavailability [8]: 27%
IC50 [1]: 0.08 µM
Tmax [9]: 4.7 h
IC50 [10]: 1.18 µM
IC50 [11]: > 25 µM
IC50 [12]: 14.1 µM
concentration [13]: 2.9 µM
Cmax [14]: 2.08 µg/mL
half-life [15]: 4.1 h
IC50 [16]: > 25 µM
Vd [17]: 10.3 L/kg
concentration [18]: 1.06 µM
IC50 [19]: > 50 µM
IC50 [2]: 0.147 µM
Vd [20]: 1.2 L/kg
clearance [21]: 0.2 L/h/kg
concentration [22]: 0.35 µM
bioavailability [23]: 52%
Tmax [24]: 1 h
EC50 [25]: 0.078 µM

COc1cc(-c2nn(C3CCN(C4CCN(C(C)=O)CC4)CC3)c3ncnc(N)c23)ccc1NC(=O)c1cc2ccccc2n1C
ED90 [26]: 19 mg/kg
IC50 [27]: 17.2 µM
IC50 [2]: 0.074 µM
IC50 [3]: ≥ 50 µM

COc1cc(-c2nn(C3CCN(C4CCN(C)CC4)CC3)c3ncnc(N)c23)ccc1NC(=O)c1ccc(C(F)(F)F)cc1F
IC50 [1]: 0.02 µM
IC50 [2]: 0.023 µM
IC50 [3]: 1.07 µM

COc1cc(-c2nn(C3CCNCC3)c3ncnc(N)c23)ccc1NC(=O)c1ccc(C(F)(F)F)cc1F
IC50 [1]: 0.05 µM
IC50 [2]: 0.08 µM
IC50 [3]: > 50 µM

COc1cc(-c2nn(C3CCN(C4CCOCC4)CC3)c3ncnc(N)c23)ccc1NC(=O)c1ccc(C(F)(F)F)cc1F
IC50 [1]: 0.04 µM
IC50 [2]: 0.102 µM
IC50 [3]: > 50 µM

COc1cc(-c2nn(C3CCN(C4CCOCC4)CC3)c3ncnc(N)c23)ccc1NC(=O)c1cc(O)c2ccccc2n1
IC50 [2]: 9.18 µM
IC50 [3]: > 50 µM

COc1cc(-c2nn(C3CCN(C4CCN(C(C)=O)CC4)CC3)c3ncnc(N)c23)ccc1NC(=O)c1ccc(C(F)(F)F)cc1F
IC50 [1]: 0.03 µM
IC50 [2]: 0.093 µM
IC50 [3]: > 50 µM

COc1cc(-c2nn(C3CCN(C4CCOCC4)CC3)c3ncnc(N)c23)ccc1NC(=O)c1cc2cc(Cl)ccc2n1C
IC50 [1]: 0.013 µM
IC50 [2]: 0.054 µM
IC50 [3]: 13.6 µM

COc1cc(-c2nn(C3CCN(C4CCOCC4)CC3)c3ncnc(N)c23)ccc1NC(=O)c1cc2ccccc2n1C
half-life [6]: 3.1 h
bioavailability [8]: 93%
IC50 [1]: 0.02 µM
ED90 [26]: 15.5 mg/kg
IC50 [2]: 0.107 µM
IC50 [3]: > 50 µM

COc1cc(-c2nn(C3CCN(C4CCOCC4)CC3)c3ncnc(N)c23)ccc1NC(=O)c1ccc(C)cc1
IC50 [2]: 8.96 µM
IC50 [3]: > 50 µM

COc1cc(-c2nn(C3CCN(C4CCOCC4)CC3)c3ncnc(N)c23)ccc1NC(=O)c1cc2cc(C#N)ccc2n1C
IC50 [2]: 3.48 µM
IC50 [3]: 32.5 µM

COc1cc(-c2nn(C3CCN(C4CCOCC4)CC3)c3ncnc(N)c23)ccc1NC(=O)c1ccc(N(C)C)cc1
IC50 [1]: 0.035 µM
IC50 [2]: 0.106 µM
IC50 [3]: > 50 µM

COc1cc(-c2nn(C3CCN(C)CC3)c3ncnc(N)c23)ccc1NC(=O)c1ccc(C(F)(F)F)cc1F
IC50 [1]: 0.03 µM
IC50 [2]: 0.106 µM
IC50 [3]: > 50 µM

COc1cc(-c2nn(C3CCN(C4CCOCC4)CC3)c3ncnc(N)c23)ccc1NC(=O)c1nc2ccccc2n1C
IC50 [1]: 0.054 µM
IC50 [2]: 0.318 µM
IC50 [3]: > 50 µM
